Here are results for 19 compounds from PMC12156367, “Synthesis and Biological Evaluation of Seco-Coumarin/Furoxan Hybrids as Potent Anti-Tumor Agents to Overcome Multidrug Resistance via Multiple Mechanisms” (Molecules, 2025).

The subject of series [1] is MCF-7/ADR (doxorubicin-resistant human breast cancer cell line). Kind of series: In vitro antiproliferative assay (MTT, 48 h), MCF-7/ADR. Format: cell-based. The following applies: for Selectivity Ratio IC50(MCF-7)/ IC50(MCF-7/ADR): collateral sensitivity; for IC50: Homo sapiens, NCI/ADR-RES, MTT, 48 h, mean of three determinations. An excerpt: The MDA-MB-468 cell line was procured from the Cell Bank of the Chinese Academy of Sciences. The MCF-7, MCF-7/ADR, MCF-10A, and MDA-MB-231 cell lines were kindly provided by Professor Xianyi Sha (Fudan University, Shanghai, China). The HUVEC cells were kindly provided by Associate Professor Hulie Zeng (Fudan University, Shanghai, China). The MDA-MB-468, MDA-MB-231, MCF-7, MCF-10A, and HUVEC cells were cultivated in DMEM (Service Biotechnology, China) supplemented with 10% FBS (Capricorn Scientific, Germany) and 1% penicillin-streptomycin (Meilunbio, Dalian, China). For the MCF-7/ADR cells, they were cultured in RPMI-1640 (Service Biotechnology, Wuhan, China), containing 10% FBS and 1% penicillin-streptomycin. Additionally, 500 ng/mL of doxorubicin (Sigma-Aldrich, Saint Louis, MO, USA) was incorporated into the RPMI-1640 culture medium to keep drug resistance. All cell lines were cultured in a humidified incubator at 37 °C with a 5% CO2 atmosphere.
Following harvest during logarithmic growth, cells were plated in 96-well culture plates at an initial density of 5000 cells per well. Incubate the plate overnight at 37 °C to allow the cells to adhere. Following the overnight incubation, introduce the compound at the predetermined concentration into each well, and then return the plate to the incubator for an additional 48 h culture period. After the 48 h treatment, carefully aspirate the drug-containing medium from each well. Subsequently, add 150 μL of 0.5 mg/mL MTT (Beyotime, China) solution to each well. Protect the plate from light and incubate it at 37 °C for 4 h to allow the formation of formazan crystals. Finally, add 150 μL of DMSO (Sinopharm, China) to each well and gently mix to ensure complete dissolution of the formazan crystals. The OD value at 570nm was measured using a microplate reader (Thermo Fisher, Waltham, MA, USA). Cell proliferation inhibition was determined using the following formula:Inhibition (%) = [(ODDMSO − ODcompd.)/(ODDMSO − ODblank)] × 100
GraphPad Prism software 9 was used to calculate the IC50 values. The specific calculation process is as follows: Firstly, we input the experimental data into Prism. The data include the concentrations of the experimental compounds and the corresponding biological response values. For instance, in the cell experiment, we recorded the cell viability values at different drug concentrations. Subsequently, we select the option of “Dose–Response–Nonlinear Regression” in the “Analyze” menu for curve fitting. Generally speaking, we use the model of “[Inhibitor] vs. normalized response—Variable slope”. The Prism software fits the data through the nonlinear least squares method and finds the parameter values that can minimize the difference between the model’s predicted values and the actual data. After completing the curve fitting, the software will directly provide the estimated values and confidence intervals of the IC50 value and other relevant parameters. Meanwhile, it will also offer goodness-of-fit indices, such as the correlation coefficient, to evaluate the quality of the fitting. Through the above method, we can accurately calculate the IC50 value, thereby assessing the intensity of the inhibitory or activating effect of the compound on the biological system.

Series [2] can be described thus: Solubility experiment (HPLC) in water/acetonitrile. Format: physicochemical. The following applies: in water/acetonitrile (table title). On the procedure: Wavelength: 254 nm; flow rate: 1.0 mL/min; column temperature: 25 °C. Mobile phase: Phase A: water, Phase B: acetonitrile (Table 5).
Compounds were dissolved in chromatographic-grade acetonitrile and diluted to concentrations of 200, 100, 50, 25, 12.5, and 6.25 µg/mL. A standard curve was plotted using the peak area under the curve (AUC) versus concentration. […] The supernatant was filtered through an ultrafiltration membrane and then subjected to HPLC analysis. The solubility of the target compound was determined by substituting the AUC of the test compound into the standard curve. Each measurement was performed in triplicate.

Take `COc1cc(OCCCOc2no[n+]([O-])c2S(=O)(=O)c2ccccc2)ccc1C(=O)C=Cc1ccccc1` [Compound 6a, 4-(3-(4-cinnamoyl-3-methoxyphenoxy)propoxy)-3-(phenylsulfonyl)-1,2,5-oxadiazole 2-oxide]: in series [1], the “Selectivity Ratio IC50(MCF-7)/ IC50(MCF-7/ADR)” value is listed as 432.6. Also, in series [2], the Solubility was 60.8 ± 7.2%.
Consider `COc1cc(OCCCOc2no[n+]([O-])c2S(=O)(=O)c2ccccc2)ccc1C(=O)/C=C/c1ccc(F)cc1` [Compound 6b, (E)-4-(3-(4-(3-(4-fluorophenyl)acryloyl)-3-methoxyphenoxy)propoxy)-3-(phenylsulfonyl)-1,2,5-oxadiazole 2-oxide], for which the “Selectivity Ratio IC50(MCF-7)/ IC50(MCF-7/ADR)” value in series [1] was found to be 286.6. In series [2], this compound showed a Solubility of 45.8 ± 3.4%.
Take `COc1ccc(/C=C/C(=O)c2ccc(OCCOc3no[n+]([O-])c3S(=O)(=O)c3ccccc3)cc2OC)cc1` [Compound 6c, (E)-4-(2-(3-methoxy-4-(3-(4-methoxyphenyl)acryloyl)phenoxy)ethoxy)-3-(phenylsulfonyl)-1,2,5-oxadiazole 2-oxide]: in series [1], the “Selectivity Ratio IC50(MCF-7)/ IC50(MCF-7/ADR)” value is 44.2. This compound registered a Solubility in series [2] of 37.7 ± 5.2%.
As to `COc1cc(OCCOc2no[n+]([O-])c2S(=O)(=O)c2ccccc2)ccc1C(=O)/C=C/c1ccc(C#N)cc1` [Compound 6e, (E)-4-(2-(4-(3-(4-cyanophenyl)acryloyl)-3-methoxyphenoxy)ethoxy)-3-(phenylsulfonyl)-1,2,5-oxadiazole 2-oxide], the “Selectivity Ratio IC50(MCF-7)/ IC50(MCF-7/ADR)” value in series [1] is 328.3. This compound registered a Solubility in series [2] of 21.2 ± 3.3%.
For `COc1cc(OCCCOc2no[n+]([O-])c2S(=O)(=O)c2ccccc2)ccc1C(=O)/C=C/c1ccc(C#N)cc1` [Compound 6f, (E)-4-(3-(4-(3-(4-cyanophenyl)acryloyl)-3-methoxyphenoxy)propoxy)-3-(phenylsulfonyl)-1,2,5-oxadiazole 2-oxide], the “Selectivity Ratio IC50(MCF-7)/ IC50(MCF-7/ADR)” value in series [1] is recorded as 212.9. Moreover, in series [2], the Solubility is 67.2 ± 6.1%.
Regarding `COc1cc(OCCOc2no[n+]([O-])c2S(=O)(=O)c2ccccc2)ccc1C(=O)CCc1ccccc1` [Compound 9a, 4-(2-(3-methoxy-4-(3-phenylpropanoyl)phenoxy)ethoxy)-3-(phenylsulfonyl)-1,2,5-oxadiazole 2-oxide], the “Selectivity Ratio IC50(MCF-7)/ IC50(MCF-7/ADR)” value in series [1] is reported as 1716.9. The compound further showed a Solubility in series [2] of 23.5 ± 4.1%.
Take `COc1cc(OCCCOc2no[n+]([O-])c2S(=O)(=O)c2ccccc2)ccc1C(=O)CCc1ccccc1` [Compound 9b, 4-(3-(3-methoxy-4-(3-phenylpropanoyl)phenoxy)propoxy)-3-(phenylsulfonyl)-1,2,5-oxadiazole 2-oxide]: the “Selectivity Ratio IC50(MCF-7)/ IC50(MCF-7/ADR)” value in series [1] is given as 1152.6. The compound also displayed a Solubility in series [2] of 19.4 ± 3.1%.
For the compound `COc1cc(OCCOc2no[n+]([O-])c2S(=O)(=O)c2ccccc2)ccc1C(=O)CCc1ccc(F)cc1` [Compound 9c, 4-(2-(4-(3-(4-fluorophenyl)propanoyl)-3-methoxyphenoxy)ethoxy)-3-(phenylsulfonyl)-1,2,5-oxadiazole 2-oxide], the “Selectivity Ratio IC50(MCF-7)/ IC50(MCF-7/ADR)” value in series [1] came out at 137.1. Besides, the Solubility in series [2] turned out to be 40.8 ± 8.2%.
As for `COc1cc(OCCCOc2no[n+]([O-])c2S(=O)(=O)c2ccccc2)ccc1C(=O)CCc1ccc(F)cc1` [Compound 9d, 4-(3-(4-(3-(4-fluorophenyl)propanoyl)-3-methoxyphenoxy)propoxy)-3-(phenylsulfonyl)-1,2,5-oxadiazole 2-oxide], in series [1], the “Selectivity Ratio IC50(MCF-7)/ IC50(MCF-7/ADR)” value is 1394.2. Besides, the Solubility in series [2] was determined as 117 ± 10.8%.
Regarding `COc1ccc(CCC(=O)c2ccc(OCCCOc3no[n+]([O-])c3S(=O)(=O)c3ccccc3)cc2OC)cc1` [Compound 9f, 4-(3-(3-methoxy-4-(3-(4-methoxyphenyl)propanoyl)phenoxy)propoxy)-3-(phenylsulfonyl)-1,2,5-oxadiazole 2-oxide], the “Selectivity Ratio IC50(MCF-7)/ IC50(MCF-7/ADR)” value in series [1] is listed as 943.2. The same compound had a Solubility in series [2] of 125 ± 9.2%.
For `COc1cc(OCCCOc2no[n+]([O-])c2S(=O)(=O)c2ccccc2)ccc1C(C)=O` [Compound 12b, 4-(3-(4-acetyl-3-methoxyphenoxy)propoxy)-3-(phenylsulfonyl)-1,2,5-oxadiazole 2-oxide], the “Selectivity Ratio IC50(MCF-7)/ IC50(MCF-7/ADR)” value in series [1] is reported as 65.6. The compound also came in with a Solubility in series [2] of 384 ± 9.3%.
As to `O=C(NCc1ccccc1)c1ccc(OCCOc2no[n+]([O-])c2S(=O)(=O)c2ccccc2)cc1O` [Compound 16a, 4-(2-(4-(benzylcarbamoyl)-3-hydroxyphenoxy)ethoxy)-3-(phenylsulfonyl)-1,2,5-oxadiazole 2-oxide], the “Selectivity Ratio IC50(MCF-7)/ IC50(MCF-7/ADR)” value in series [1] came to 7.2. In addition, the Solubility in series [2] was found to be 125 ± 7.1%.
As to `O=C(NCc1ccc(F)cc1)c1ccc(OCCOc2no[n+]([O-])c2S(=O)(=O)c2ccccc2)cc1O` [Compound 16b, 4-(2-(4-((4-fluorobenzyl)carbamoyl)-3-hydroxyphenoxy)ethoxy)-3-(phenylsulfonyl)-1,2,5-oxadiazole 2-oxide], the “Selectivity Ratio IC50(MCF-7)/ IC50(MCF-7/ADR)” value in series [1] is reported as 27.8. The same compound registered a Solubility in series [2] of 31.6 ± 6.8%.
For `Nc1ccc(CNC(=O)c2ccc(OCCOc3no[n+]([O-])c3S(=O)(=O)c3ccccc3)cc2O)cc1` [Compound 16c, 4-(2-(4-((4-aminobenzyl)carbamoyl)-3-hydroxyphenoxy)ethoxy)-3-(phenylsulfonyl)-1,2,5-oxadiazole 2-oxide], the “Selectivity Ratio IC50(MCF-7)/ IC50(MCF-7/ADR)” value in series [1] is 95.4. The Solubility in series [2] is 327 ± 11.6%.
On to `O=C(NCc1ccc(C(F)(F)F)cc1)c1ccc(OCCOc2no[n+]([O-])c2S(=O)(=O)c2ccccc2)cc1O` [Compound 16d, 4-(2-(3-hydroxy-4-((4-(trifluoromethyl)benzyl)carbamoyl)phenoxy)ethoxy)-3-(phenylsulfonyl)-1,2,5-oxadiazole 2-oxide], for which, in series [1], the IC50 (commonly the concentration that gives 50% inhibition) came out at 10.5 nM and the “Selectivity Ratio IC50(MCF-7)/ IC50(MCF-7/ADR)” value amounted to 257.8. The compound further showed a Solubility in series [2] of 61.1 ± 2.6%.
Consider `N#Cc1ccc(CNC(=O)c2ccc(OCCOc3no[n+]([O-])c3S(=O)(=O)c3ccccc3)cc2O)cc1` [Compound 16e, 4-(2-(4-((4-cyanobenzyl)carbamoyl)-3-hydroxyphenoxy)ethoxy)-3-(phenylsulfonyl)-1,2,5-oxadiazole 2-oxide], for which, in series [1], half-maximal inhibition (IC50) required 5.36 nM and the “Selectivity Ratio IC50(MCF-7)/ IC50(MCF-7/ADR)” value amounted to 561.9. The compound also yielded a Solubility in series [2] of 33.8 ± 5.3%.
In the case of `O=C(NCc1ccc(O)cc1)c1ccc(OCCOc2no[n+]([O-])c2S(=O)(=O)c2ccccc2)cc1O` [Compound 16f, 4-(2-(3-hydroxy-4-((4-hydroxybenzyl)carbamoyl)phenoxy)ethoxy)-3-(phenylsulfonyl)-1,2,5-oxadiazole 2-oxide], in series [1], the “Selectivity Ratio IC50(MCF-7)/ IC50(MCF-7/ADR)” value is given as 64.4. For the same compound, the Solubility in series [2] is 81.0 ± 7.9%.
For the compound `COc1cc(OCCOc2no[n+]([O-])c2S(=O)(=O)c2ccccc2)ccc1C(=O)NCc1ccccc1` [Compound 18a, 4-(2-(4-(benzylcarbamoyl)-3-methoxyphenoxy)ethoxy)-3-(phenylsulfonyl)-1,2,5-oxadiazole 2-oxide], the “Selectivity Ratio IC50(MCF-7)/ IC50(MCF-7/ADR)” value in series [1] was found to be 47.8. In addition, the Solubility in series [2] is 70.3 ± 6.1%.
As for `COc1cccc2c1C(=O)c1c(O)c3c(c(O)c1C2=O)C[C@@](O)(C(=O)CO)C[C@@H]3O[C@H]1C[C@H](N)[C@H](O)[C@H](C)O1` [doxorubicin, reference compound], in series [1], the “Selectivity Ratio IC50(MCF-7)/ IC50(MCF-7/ADR)” value worked out at 0.008.
